# Molecular target: T1, ULK1 (Homo sapiens, UniProt O75385)
# T1 sequence (O75385 1-1050): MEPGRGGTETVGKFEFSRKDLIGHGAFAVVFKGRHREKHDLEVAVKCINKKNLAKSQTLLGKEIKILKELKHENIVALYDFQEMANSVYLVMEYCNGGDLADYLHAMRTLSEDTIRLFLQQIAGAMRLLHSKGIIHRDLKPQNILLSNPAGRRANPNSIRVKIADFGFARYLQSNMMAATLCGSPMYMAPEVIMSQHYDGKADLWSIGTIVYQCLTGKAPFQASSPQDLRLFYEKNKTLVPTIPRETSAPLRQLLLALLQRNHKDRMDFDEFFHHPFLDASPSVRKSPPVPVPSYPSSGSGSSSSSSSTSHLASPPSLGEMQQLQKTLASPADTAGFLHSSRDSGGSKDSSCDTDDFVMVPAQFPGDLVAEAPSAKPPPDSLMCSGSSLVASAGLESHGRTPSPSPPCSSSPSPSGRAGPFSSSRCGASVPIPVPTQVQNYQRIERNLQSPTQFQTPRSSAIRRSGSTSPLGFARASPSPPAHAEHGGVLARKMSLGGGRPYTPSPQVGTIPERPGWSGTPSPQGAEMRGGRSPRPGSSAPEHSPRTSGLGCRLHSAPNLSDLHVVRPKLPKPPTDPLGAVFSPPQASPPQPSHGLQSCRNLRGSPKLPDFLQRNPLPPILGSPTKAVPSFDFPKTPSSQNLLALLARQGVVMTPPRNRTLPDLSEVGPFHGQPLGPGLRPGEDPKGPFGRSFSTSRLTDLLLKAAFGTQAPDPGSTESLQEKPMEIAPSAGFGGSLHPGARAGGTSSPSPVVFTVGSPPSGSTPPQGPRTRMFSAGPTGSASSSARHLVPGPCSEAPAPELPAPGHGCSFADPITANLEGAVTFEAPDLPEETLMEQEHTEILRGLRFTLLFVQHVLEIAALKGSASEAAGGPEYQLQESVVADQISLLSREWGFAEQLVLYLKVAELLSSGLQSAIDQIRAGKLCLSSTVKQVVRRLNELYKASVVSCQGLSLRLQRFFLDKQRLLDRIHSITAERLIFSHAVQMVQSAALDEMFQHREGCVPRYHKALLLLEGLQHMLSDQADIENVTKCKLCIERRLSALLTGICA
# Assay: ULK1 inhibition assay
# Type: biochemical
# Conditions: * = tested as a mixture of regioisomers
compound,measurement,value
CC(Cl)CNc1nc(Nc2ccc3c(c2)CCC(=O)N3)ncc1C(F)(F)F (stereo not drawn) [Compound 183b],IC50,< 0.2 µM
CC(CCl)Nc1nc(Nc2ccc3c(c2)CCC(=O)N3)ncc1C(F)(F)F (stereo not drawn) [Compound 183c],IC50,> 2 µM
CN(c1ccccc1)c1nc(Nc2ccc3c(c2)CCC(=O)N3)ncc1C(F)(F)F [Compound 184a],IC50,0.2 to 2 µM
CN(c1ccccc1)c1ncc(C(F)(F)F)c(Nc2ccc3c(c2)CCC(=O)N3)n1 [Compound 184b],IC50,< 0.2 µM
O=C1CCc2cc(Nc3ncc(C(F)(F)F)c(Nc4ccc5[nH]ncc5c4)n3)ccc2N1 [Compound 185],IC50,< 0.2 µM
COc1cc(Nc2ncc(Br)c(NC3CC3)n2)cc(OC)c1OC [Compound 186],IC50,< 0.2 µM
COc1cc(Nc2ncc(C(F)(F)F)c(NC3CC3)n2)cc(OC)c1OC [Compound 187],IC50,< 0.2 µM
FC(F)(F)c1cnc(Nc2ccc3nn[nH]c3c2)nc1NC1CC1 [Compound 188],IC50,< 0.2 µM
Oc1ncc(C(F)(F)F)c(NC2CC2)n1 [Compound 189],IC50,> 2 µM
FC(F)(F)c1cnc(Nc2ccc3c(c2)OCCCO3)nc1NC1CC1 [Compound 190],IC50,< 0.2 µM
O=c1[nH]c2ncc(Nc3nc(Nc4ccc5c(c4)OCCO5)ncc3Br)cc2o1 [Compound 192],IC50,< 0.2 µM
O=C1CCc2cc(Nc3ncc(C(F)(F)F)c(NC4COC4)n3)ccc2N1 [Compound 193],IC50,> 2 µM
FC(F)(F)c1cnc(Nc2cnc3[nH]ccc3c2)nc1NC1COC1 [Compound 194],IC50,< 0.2 µM
FC(F)(F)c1cnc(Nc2cccnc2)nc1NC1CC1 [Compound 196],IC50,> 2 µM
O=C1CCc2cc(Nc3ncc(C(F)(F)F)c(NCCO)n3)ccc2N1 [Compound 197],IC50,< 0.2 µM
O=C1CCc2cc(Nc3ncc(C(F)(F)F)c(NC4CNC4)n3)ccc2N1 [Compound 198a],IC50,0.2 to 2 µM
O=C1CCc2cc(Nc3ncc(C(F)(F)F)c(NC4CN(c5nc(Nc6ccc7c(c6)CCC(=O)N7)ncc5C(F)(F)F)C4)n3)ccc2N1 [Compound 198b],IC50,> 2 µM
O=C1CCc2cc(Nc3nccc(NC4CC4)n3)ccc2N1 [Compound 200],IC50,> 2 µM
CNC(=O)c1ccccc1Nc1nc(Nc2cnc3[nH]ccc3c2)ncc1C(F)(F)F [Compound 201],IC50,< 0.2 µM
CN(c1nc(Nc2ccc3c(c2)CCC(=O)N3)ncc1C(F)(F)F)C1CC1 [Compound 202],IC50,< 0.2 µM
FC(F)(F)c1cnc(Nc2cncnc2)nc1NC1CC1 [Compound 203],IC50,< 0.2 µM
c1cc(NC2CC2)nc(Nc2cnc3[nH]ccc3c2)n1 [Compound 204],IC50,> 2 µM
FC(F)(F)c1cnc(Nc2ccc3[nH]ccc3c2)nc1NC1CC1 [Compound 206],IC50,< 0.2 µM
FC(F)(F)c1cnc(Nc2ccc3ncoc3c2)nc1NC1CC1 [Compound 208a],IC50,< 0.2 µM
OC1Nc2ccc(Nc3ncc(C(F)(F)F)c(NC4CC4)n3)cc2O1 (stereo not drawn) [Compound 208b],IC50,< 0.2 µM
Nc1nc(Nc2ccc3c(c2)CCC(=O)N3)ncc1C(F)(F)F [Compound 209],IC50,0.2 to 2 µM
O=C1CCc2cc(Nc3ncc(C(F)(F)F)c(N(CCO)CCO)n3)ccc2N1 [Compound 212a],IC50,> 2 µM
O=C1CCc2cc(Nc3ncc(C(F)(F)F)c(OCCNCCO)n3)ccc2N1 [Compound 212b],IC50,0.2 to 2 µM
FC(F)(F)c1cnc(Nc2ccc3c(c2)OCO3)nc1NC1CC1 [Compound 213],IC50,< 0.2 µM
FC(F)(F)c1cnc(Nc2ccon2)nc1NC1CC1 [Compound 214a],IC50,0.2 to 2 µM
N=c1ccon1-c1ncc(C(F)(F)F)c(NC2CC2)n1 [Compound 214b],IC50,> 2 µM
O=C1CCc2cc(Nc3ncc(C(F)(F)F)c(N4CC(F)(F)C4)n3)ccc2N1 [Compound 215],IC50,< 0.2 µM
O=C1CCc2cc(Nc3ncc(C(F)(F)F)c(NCC4CC4)n3)ccc2N1 [Compound 216],IC50,< 0.2 µM
Nc1nc(Nc2cnc3[nH]ccc3c2)ncc1C(F)(F)F [Compound 217],IC50,> 2 µM
COC(=O)CNc1nc(Nc2ccc3c(c2)CCC(=O)N3)ncc1C(F)(F)F [Compound 218],IC50,> 2 µM
CCONc1nc(Nc2ccc3c(c2)CCC(=O)N3)ncc1C(F)(F)F [Compound 219],IC50,> 2 µM
CC1(Nc2nc(Nc3ccc4c(c3)CCC(=O)N4)ncc2C(F)(F)F)COC1 [Compound 220a],IC50,> 2 µM
CN(C)c1nc(Nc2ccc3c(c2)CCC(=O)N3)ncc1C(F)(F)F [Compound 220b],IC50,< 0.2 µM
COCC(C)(CN(C)C)Nc1nc(Nc2ccc3c(c2)CCC(=O)N3)ncc1C(F)(F)F (stereo not drawn) [Compound 220c],IC50,> 2 µM
FC(F)(F)c1cnc(Nc2ccnnc2)nc1NC1CC1 [Compound 221a],IC50,< 0.2 µM
c1cc(NC2CC2)nc(Nc2ccc3c(c2)OCCO3)n1 [Compound 224],IC50,> 2 µM
O=C1CCc2cc(Nc3ncnc(NC4CC4)n3)ccc2N1 [Compound 225],IC50,> 2 µM
COC(=O)[C@@H]1CCCN1c1nc(Nc2ccc3c(c2)CCC(=O)N3)ncc1C(F)(F)F [Compound 227],IC50,0.2 to 2 µM
FC(F)(F)c1cnc(N2CCCC2c2cccnc2)nc1NC1CC1 (stereo not drawn) [Compound 228],IC50,> 2 µM
O=C1CCc2cc(Nc3ncc(C(F)(F)F)c(OC4COC4)n3)ccc2N1 [Compound 231a],IC50,< 0.2 µM
O=C1CCc2cc(Nc3ncc(C(F)(F)F)c(O)n3)ccc2N1 [Compound 231b],IC50,> 2 µM
O=c1[nH]c2ccc(Nc3nccc(NC4CC4)n3)cc2[nH]1 [Compound 232],IC50,> 2 µM
O=c1[nH]c2ccc(Nc3ncc(Br)c(Nc4ccc5[nH]c(=O)[nH]c5c4)n3)cc2[nH]1 [Compound 233],IC50,< 0.2 µM
CNC(=O)c1ccccc1Oc1nc(Nc2cc(OC)c(OC)c(OC)c2)ncc1Cl [Compound 234a],IC50,> 2 µM
COc1cc(Nc2ncc(Cl)c(N(C)C(=O)c3ccccc3O)n2)cc(OC)c1OC [Compound 234b],IC50,0.2 to 2 µM
O=c1[nH]c2ccc(Nc3ncc(Br)c(NC4CC4)n3)cc2[nH]1 [Compound 236],IC50,< 0.2 µM
CNS(=O)(=O)c1ccccc1Nc1nc(Nc2cc(OC)c(OC)c(OC)c2)ncc1Br [Compound 237],IC50,0.2 to 2 µM
CNC(=O)c1ccccc1Oc1ccnc(Nc2cc(OC)c(OC)c(OC)c2)n1 [Compound 239],IC50,> 2 µM
O=C1Cc2cc(Nc3ncc(C(F)(F)F)c(NC4CC4)n3)ccc2N1 [Compound 240],IC50,< 0.2 µM
CNC(=O)c1cccc(Oc2nc(Nc3cc(OC)c(OC)c(OC)c3)ncc2Br)c1 [Compound 242],IC50,0.2 to 2 µM
COc1cc(Nc2ncc(Br)c(Oc3ccccc3C(=O)N(C)C)n2)cc(OC)c1OC [Compound 245],IC50,< 0.2 µM
Oc1ccc(CCNc2ncc(C(F)(F)F)c(NC3CC3)n2)cc1 [Compound 246],IC50,0.2 to 2 µM
C[C@@H]1COCCN1c1nc(Nc2ccc3c(c2)CCC(=O)N3)ncc1C(F)(F)F [Compound 247],IC50,< 0.2 µM
COc1cc(Nc2ncc(Br)c(Oc3ccccc3C(N)=O)n2)cc(OC)c1OC [Compound 249],IC50,< 0.2 µM
CNC(=O)c1cccc(OC)c1Oc1nc(Nc2cc(OC)c(OC)c(OC)c2)ncc1Br [Compound 252],IC50,< 0.2 µM
COc1cc(Nc2ncc(Br)c(Oc3ccccc3NC(C)=O)n2)cc(OC)c1OC [Compound 254a],IC50,< 0.2 µM
COc1cc(Nc2ncc(Br)c(Oc3ccccc3N)n2)cc(OC)c1OC [Compound 254b],IC50,< 0.2 µM
CNC(=O)c1c(O)cccc1Oc1nc(Nc2cc(OC)c(OC)c(OC)c2)ncc1Br [Compound 257],IC50,< 0.2 µM
FC1(F)Oc2ccc(Nc3ncc(C(F)(F)F)c(NC4CC4)n3)cc2O1 [Compound 258],IC50,> 2 µM
CCC(=O)c1ccccc1Oc1nc(Nc2cc(OC)c(OC)c(OC)c2)ncc1Br [Compound 260],IC50,< 0.2 µM
O=C1CCc2cc(Nc3ncc(C(F)(F)F)c(OCCNC(=O)OCc4ccccc4)n3)ccc2N1 [Compound 261],IC50,> 2 µM
FC(F)(F)c1cnc(NCc2cccc3ccccc23)nc1NC1CC1 [Compound 262],IC50,> 2 µM
O=C1CCc2cc(Nc3nc(NC4CC4)c4ccccc4n3)ccc2N1 [Compound 263],IC50,> 2 µM
FC(F)(F)c1cnc(Nc2ccc3ncccc3c2)nc1NC1CC1 [Compound 264],IC50,< 0.2 µM
COc1cc(Nc2ncc(Br)c(Oc3ccccc3)n2)cc(OC)c1OC [Compound 266],IC50,< 0.2 µM
CNC(=O)c1cccc(Oc2nc(Nc3ccc4c(c3)CCC(=O)N4)ncc2Br)c1 [Compound 268],IC50,0.2 to 2 µM
COc1cc(Nc2ncc(Br)c(Oc3ccccc3C(=O)NC3CC3)n2)cc(OC)c1OC [Compound 270],IC50,0.2 to 2 µM
O=C1CCc2cc(Nc3ncc(C(F)(F)F)c(Nc4cc(C5CCC5)[nH]n4)n3)ccc2N1 [Compound 271],IC50,< 0.2 µM
COCc1ccccc1Oc1nc(Nc2cc(OC)c(OC)c(OC)c2)ncc1Br [Compound 274],IC50,< 0.2 µM
FC(F)(F)c1cnc(Nc2cnc3ccccc3c2)nc1NC1CC1 [Compound 275],IC50,< 0.2 µM

# Reference: patent US20230130766A1 (SALK INSTITUTE FOR BIOLOGICAL STUDIES, priority 2020, published 2023)
